Test system: Pseudomonas aeruginosa PAM1001
Experiment: checkerboard assay (broth microdilution): levofloxacin MIC in presence of efflux pump inhibitor
Format: cell-based
Outline: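 Reduction of levofloxacin MIC by an efflux pump inhibitor measured against Pseudomonas aeruginosa PAM1001. Each microdilution well held a unique combination of levofloxacin and inhibitor (max 40 μg/mL) in MHB, inoculum 5×10^5 CFU/mL. Readout after 20 h, 35° C: OD650 plus visual inspection.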

SMILES: Cc1cc2nc(C(O)[C@@H](CCc3ccccc3)NC(=O)[C@@H]3C[C@@H](NC(=O)[C@@H](C)N)CN3)oc2cc1C (mixture of isomers) [Compound M65, (2S,4R)-4-[(2R)-2-Aminopropionamido]-N-[(1R)-1-[(RS)-(5,6-dimethyl-2-benzoxaaolyl)hydroxymethyl]-3-phenylpropyl]-2-pyrrolidinecarboxamide]
- Levofloxacin MIC Against P. aerugiuosa PAM1001 in Presence of Efflux Pump Inhibitor (EPI), Minimum Inhibitory Concentration (EPI Conc. 0 μg/mL): 4 µg/mL
- Levofloxacin MIC Against P. aerugiuosa PAM1001 in Presence of Efflux Pump Inhibitor (EPI), Minimum Inhibitory Concentration (EPI Conc. 0.625 μg/mL): 4 µg/mL
- Levofloxacin MIC Against P. aerugiuosa PAM1001 in Presence of Efflux Pump Inhibitor (EPI), Minimum Inhibitory Concentration (EPI Conc. 1.25 μg/mL): 4 µg/mL
- Levofloxacin MIC Against P. aerugiuosa PAM1001 in Presence of Efflux Pump Inhibitor (EPI), Minimum Inhibitory Concentration (EPI Conc. 2.5 μg/mL): 4 µg/mL
- Levofloxacin MIC Against P. aerugiuosa PAM1001 in Presence of Efflux Pump Inhibitor (EPI), Minimum Inhibitory Concentration (EPI Conc. 5 μg/ mL): 4 µg/mL
- Levofloxacin MIC Against P. aerugiuosa PAM1001 in Presence of Efflux Pump Inhibitor (EPI), Minimum Inhibitory Concentration (EPI Conc. 10 μg/mL): 4 µg/mL
- Levofloxacin MIC Against P. aerugiuosa PAM1001 in Presence of Efflux Pump Inhibitor (EPI), Minimum Inhibitory Concentration (EPI Conc. 20 μg/mL): 0.06 µg/mL
- Levofloxacin MIC Against P. aerugiuosa PAM1001 in Presence of Efflux Pump Inhibitor (EPI), Minimum Inhibitory Concentration (EPI Conc. 40 μg/mL): 0.015 µg/mL

SMILES: NCC(=O)N[C@H]1CN[C@@H](C(=O)N[C@H](Cc2ccc(F)cc2)C(=O)Nc2cnc3ccccc3c2)C1 [Compound M20, (2R,4R)-4-(2-Aminoacetamideo)-N-[(1R)-2-(4-fluorophenyl)-1-(3-quinolylcarbamoyl)ethyl]-2-pyrrolidinecarboxamide]
- Levofloxacin MIC Against P. aerugiuosa PAM1001 in Presence of Efflux Pump Inhibitor (EPI), Minimum Inhibitory Concentration (EPI Conc. 0 μg/mL): 4 µg/mL
- Levofloxacin MIC Against P. aerugiuosa PAM1001 in Presence of Efflux Pump Inhibitor (EPI), Minimum Inhibitory Concentration (EPI Conc. 0.625 μg/mL): 4 µg/mL
- Levofloxacin MIC Against P. aerugiuosa PAM1001 in Presence of Efflux Pump Inhibitor (EPI), Minimum Inhibitory Concentration (EPI Conc. 1.25 μg/mL): 4 µg/mL
- Levofloxacin MIC Against P. aerugiuosa PAM1001 in Presence of Efflux Pump Inhibitor (EPI), Minimum Inhibitory Concentration (EPI Conc. 2.5 μg/mL): 4 µg/mL
- Levofloxacin MIC Against P. aerugiuosa PAM1001 in Presence of Efflux Pump Inhibitor (EPI), Minimum Inhibitory Concentration (EPI Conc. 5 μg/ mL): 2 µg/mL
- Levofloxacin MIC Against P. aerugiuosa PAM1001 in Presence of Efflux Pump Inhibitor (EPI), Minimum Inhibitory Concentration (EPI Conc. 10 μg/mL): 0.50 µg/mL
- Levofloxacin MIC Against P. aerugiuosa PAM1001 in Presence of Efflux Pump Inhibitor (EPI), Minimum Inhibitory Concentration (EPI Conc. 20 μg/mL): 0.125 µg/mL
- Levofloxacin MIC Against P. aerugiuosa PAM1001 in Presence of Efflux Pump Inhibitor (EPI), Minimum Inhibitory Concentration (EPI Conc. 40 μg/mL): 0.015 µg/mL

SMILES: NCC(=O)N[C@H]1CN[C@H](C(=O)N[C@H](CCc2ccccc2)CSc2ccc3ccccc3n2)C1 [Compound M55, (2S,4R)-4-(2-Aminoacetamido)-N-[(1R)-3-phenyl-1-[(2-quinolythio)methyl]propyl]-2-pyrrolidinecarobxamide]
- Levofloxacin MIC Against P. aerugiuosa PAM1001 in Presence of Efflux Pump Inhibitor (EPI), Minimum Inhibitory Concentration (EPI Conc. 0 μg/mL): 4 µg/mL
- Levofloxacin MIC Against P. aerugiuosa PAM1001 in Presence of Efflux Pump Inhibitor (EPI), Minimum Inhibitory Concentration (EPI Conc. 0.625 μg/mL): 4 µg/mL
- Levofloxacin MIC Against P. aerugiuosa PAM1001 in Presence of Efflux Pump Inhibitor (EPI), Minimum Inhibitory Concentration (EPI Conc. 1.25 μg/mL): 4 µg/mL
- Levofloxacin MIC Against P. aerugiuosa PAM1001 in Presence of Efflux Pump Inhibitor (EPI), Minimum Inhibitory Concentration (EPI Conc. 2.5 μg/mL): 4 µg/mL
- Levofloxacin MIC Against P. aerugiuosa PAM1001 in Presence of Efflux Pump Inhibitor (EPI), Minimum Inhibitory Concentration (EPI Conc. 5 μg/ mL): 4 µg/mL
- Levofloxacin MIC Against P. aerugiuosa PAM1001 in Presence of Efflux Pump Inhibitor (EPI), Minimum Inhibitory Concentration (EPI Conc. 10 μg/mL): 2 µg/mL
- Levofloxacin MIC Against P. aerugiuosa PAM1001 in Presence of Efflux Pump Inhibitor (EPI), Minimum Inhibitory Concentration (EPI Conc. 20 μg/mL): 1 µg/mL
- Levofloxacin MIC Against P. aerugiuosa PAM1001 in Presence of Efflux Pump Inhibitor (EPI), Minimum Inhibitory Concentration (EPI Conc. 40 μg/mL): 0.06 µg/mL

SMILES: NCC(=O)N[C@H]1CN[C@H](C(=O)N[C@H](CCc2ccccc2)CSc2cnc3ccccc3c2)C1 [Compound M53, (2S,4R)-4-(2-Aminoacetamideo)-N-[(1R)-3-phenyl-1-[(3-quinolythio)methyl]propyl]-2-pyrrolidinecarboxamide]
- Levofloxacin MIC Against P. aerugiuosa PAM1001 in Presence of Efflux Pump Inhibitor (EPI), Minimum Inhibitory Concentration (EPI Conc. 0 μg/mL): 4 µg/mL
- Levofloxacin MIC Against P. aerugiuosa PAM1001 in Presence of Efflux Pump Inhibitor (EPI), Minimum Inhibitory Concentration (EPI Conc. 0.625 μg/mL): 4 µg/mL
- Levofloxacin MIC Against P. aerugiuosa PAM1001 in Presence of Efflux Pump Inhibitor (EPI), Minimum Inhibitory Concentration (EPI Conc. 1.25 μg/mL): 4 µg/mL
- Levofloxacin MIC Against P. aerugiuosa PAM1001 in Presence of Efflux Pump Inhibitor (EPI), Minimum Inhibitory Concentration (EPI Conc. 2.5 μg/mL): 4 µg/mL
- Levofloxacin MIC Against P. aerugiuosa PAM1001 in Presence of Efflux Pump Inhibitor (EPI), Minimum Inhibitory Concentration (EPI Conc. 5 μg/ mL): 4 µg/mL
- Levofloxacin MIC Against P. aerugiuosa PAM1001 in Presence of Efflux Pump Inhibitor (EPI), Minimum Inhibitory Concentration (EPI Conc. 10 μg/mL): 4 µg/mL
- Levofloxacin MIC Against P. aerugiuosa PAM1001 in Presence of Efflux Pump Inhibitor (EPI), Minimum Inhibitory Concentration (EPI Conc. 20 μg/mL): 0.06 µg/mL
- Levofloxacin MIC Against P. aerugiuosa PAM1001 in Presence of Efflux Pump Inhibitor (EPI), Minimum Inhibitory Concentration (EPI Conc. 40 μg/mL): 0.03 µg/mL

SMILES: NC[C@@H]1CN[C@@H](C(=O)N[C@H](Cc2ccc(F)cc2)C(=O)Nc2cnc3ccccc3c2)C1 [Compound M31, (2R,4R)-4-(Aminomethyl)-N-[(1R)-2-(4-fluoropheyl)-1-(3-quinolylcarbamoyl)ethyl]-2-pyrrolidinecarboxamide]
- Levofloxacin MIC Against P. aerugiuosa PAM1001 in Presence of Efflux Pump Inhibitor (EPI), Minimum Inhibitory Concentration (EPI Conc. 0 μg/mL): 4 µg/mL
- Levofloxacin MIC Against P. aerugiuosa PAM1001 in Presence of Efflux Pump Inhibitor (EPI), Minimum Inhibitory Concentration (EPI Conc. 0.625 μg/mL): 4 µg/mL
- Levofloxacin MIC Against P. aerugiuosa PAM1001 in Presence of Efflux Pump Inhibitor (EPI), Minimum Inhibitory Concentration (EPI Conc. 1.25 μg/mL): 4 µg/mL
- Levofloxacin MIC Against P. aerugiuosa PAM1001 in Presence of Efflux Pump Inhibitor (EPI), Minimum Inhibitory Concentration (EPI Conc. 2.5 μg/mL): 4 µg/mL
- Levofloxacin MIC Against P. aerugiuosa PAM1001 in Presence of Efflux Pump Inhibitor (EPI), Minimum Inhibitory Concentration (EPI Conc. 5 μg/ mL): 1 µg/mL
- Levofloxacin MIC Against P. aerugiuosa PAM1001 in Presence of Efflux Pump Inhibitor (EPI), Minimum Inhibitory Concentration (EPI Conc. 10 μg/mL): 0.25 µg/mL
- Levofloxacin MIC Against P. aerugiuosa PAM1001 in Presence of Efflux Pump Inhibitor (EPI), Minimum Inhibitory Concentration (EPI Conc. 20 μg/mL): 0.03 µg/mL
- Levofloxacin MIC Against P. aerugiuosa PAM1001 in Presence of Efflux Pump Inhibitor (EPI), Minimum Inhibitory Concentration (EPI Conc. 40 μg/mL): 0.03 µg/mL

SMILES: NCC(=O)N[C@H]1CN[C@H](C(=O)N[C@@H](CCc2ccccc2)c2nc3ccccc3o2)C1 [Compound M85, (2S,4R)-4-(2-Aminoacetamido)-N-[(1S)-1-(2-benzoxazoiyl)-3-phenylpropyl]-2-pyrrolidinecarboxamide]
- Levofloxacin MIC Against P. aerugiuosa PAM1001 in Presence of Efflux Pump Inhibitor (EPI), Minimum Inhibitory Concentration (EPI Conc. 0 μg/mL): 4 µg/mL
- Levofloxacin MIC Against P. aerugiuosa PAM1001 in Presence of Efflux Pump Inhibitor (EPI), Minimum Inhibitory Concentration (EPI Conc. 0.625 μg/mL): 4 µg/mL
- Levofloxacin MIC Against P. aerugiuosa PAM1001 in Presence of Efflux Pump Inhibitor (EPI), Minimum Inhibitory Concentration (EPI Conc. 1.25 μg/mL): 4 µg/mL
- Levofloxacin MIC Against P. aerugiuosa PAM1001 in Presence of Efflux Pump Inhibitor (EPI), Minimum Inhibitory Concentration (EPI Conc. 2.5 μg/mL): 4 µg/mL
- Levofloxacin MIC Against P. aerugiuosa PAM1001 in Presence of Efflux Pump Inhibitor (EPI), Minimum Inhibitory Concentration (EPI Conc. 5 μg/ mL): 4 µg/mL
- Levofloxacin MIC Against P. aerugiuosa PAM1001 in Presence of Efflux Pump Inhibitor (EPI), Minimum Inhibitory Concentration (EPI Conc. 10 μg/mL): 2 µg/mL
- Levofloxacin MIC Against P. aerugiuosa PAM1001 in Presence of Efflux Pump Inhibitor (EPI), Minimum Inhibitory Concentration (EPI Conc. 20 μg/mL): 0.50 µg/mL
- Levofloxacin MIC Against P. aerugiuosa PAM1001 in Presence of Efflux Pump Inhibitor (EPI), Minimum Inhibitory Concentration (EPI Conc. 40 μg/mL): 0.03 µg/mL

SMILES: NCC(=O)N[C@H]1CN[C@@H](C(=O)N(CCc2ccccc2)CC(=O)Nc2cnc3ccccc3c2)C1 [Compound M46]
- Levofloxacin MIC Against P. aerugiuosa PAM1001 in Presence of Efflux Pump Inhibitor (EPI), Minimum Inhibitory Concentration (EPI Conc. 0 μg/mL): 4 µg/mL
- Levofloxacin MIC Against P. aerugiuosa PAM1001 in Presence of Efflux Pump Inhibitor (EPI), Minimum Inhibitory Concentration (EPI Conc. 0.625 μg/mL): 4 µg/mL
- Levofloxacin MIC Against P. aerugiuosa PAM1001 in Presence of Efflux Pump Inhibitor (EPI), Minimum Inhibitory Concentration (EPI Conc. 1.25 μg/mL): 4 µg/mL
- Levofloxacin MIC Against P. aerugiuosa PAM1001 in Presence of Efflux Pump Inhibitor (EPI), Minimum Inhibitory Concentration (EPI Conc. 2.5 μg/mL): 4 µg/mL
- Levofloxacin MIC Against P. aerugiuosa PAM1001 in Presence of Efflux Pump Inhibitor (EPI), Minimum Inhibitory Concentration (EPI Conc. 5 μg/ mL): 4 µg/mL
- Levofloxacin MIC Against P. aerugiuosa PAM1001 in Presence of Efflux Pump Inhibitor (EPI), Minimum Inhibitory Concentration (EPI Conc. 10 μg/mL): 4 µg/mL
- Levofloxacin MIC Against P. aerugiuosa PAM1001 in Presence of Efflux Pump Inhibitor (EPI), Minimum Inhibitory Concentration (EPI Conc. 20 μg/mL): 1 µg/mL
- Levofloxacin MIC Against P. aerugiuosa PAM1001 in Presence of Efflux Pump Inhibitor (EPI), Minimum Inhibitory Concentration (EPI Conc. 40 μg/mL): 0.5 µg/mL

SMILES: CC(C)(C)c1ccc2ncc(NC(=O)[C@H]3C[C@H](CN)CN3)cc2c1 [Compound M97, (2R,4R)-4-(Aminomethyl)-N-[6-(1,1-dimethyl)ethyl-3-quiolyl]-2-pyrrolidinecarboxamide]
- Levofloxacin MIC Against P. aerugiuosa PAM1001 in Presence of Efflux Pump Inhibitor (EPI), Minimum Inhibitory Concentration (EPI Conc. 0 μg/mL): 4 µg/mL
- Levofloxacin MIC Against P. aerugiuosa PAM1001 in Presence of Efflux Pump Inhibitor (EPI), Minimum Inhibitory Concentration (EPI Conc. 0.625 μg/mL): 4 µg/mL
- Levofloxacin MIC Against P. aerugiuosa PAM1001 in Presence of Efflux Pump Inhibitor (EPI), Minimum Inhibitory Concentration (EPI Conc. 1.25 μg/mL): 4 µg/mL
- Levofloxacin MIC Against P. aerugiuosa PAM1001 in Presence of Efflux Pump Inhibitor (EPI), Minimum Inhibitory Concentration (EPI Conc. 2.5 μg/mL): 2 µg/mL
- Levofloxacin MIC Against P. aerugiuosa PAM1001 in Presence of Efflux Pump Inhibitor (EPI), Minimum Inhibitory Concentration (EPI Conc. 5 μg/ mL): 0.5 µg/mL
- Levofloxacin MIC Against P. aerugiuosa PAM1001 in Presence of Efflux Pump Inhibitor (EPI), Minimum Inhibitory Concentration (EPI Conc. 10 μg/mL): 0.125 µg/mL
- Levofloxacin MIC Against P. aerugiuosa PAM1001 in Presence of Efflux Pump Inhibitor (EPI), Minimum Inhibitory Concentration (EPI Conc. 20 μg/mL): 0.015 µg/mL
- Levofloxacin MIC Against P. aerugiuosa PAM1001 in Presence of Efflux Pump Inhibitor (EPI), Minimum Inhibitory Concentration (EPI Conc. 40 μg/mL): 0.008 µg/mL

From patent US6399629B1, “Efflux pump inhibitors” (priority 1998, dated 2002)
